Reference: patent US20230085307A1, “PYRIDAZINONE COMPOUND AND HERBICIDE” (NISSAN CHEMICAL CORPORATION, priority 2019, published 2023)

How the values were obtained:
Japanese bulrush = test: Test Example 1: herbicidal activity, application before weed generation under submerged conditions (Table 16, symbol B); assay type: in vivo, Japanese bulrush (Schoenoplectus juncoides); details: 320 g/ha applied herbicide
In short: (§1)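 Emulsion formulation, water-diluted to set dose, was put onto the flooded surface (4 cm depth, alluvial soil) the same day weeds were sown and 2.5-leaf rice transplanted. After 3 weeks at 25-30 °C under glass, each species was rated 0 (≤5% kill) to 5 (≥90% kill).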

oval-leafed pondweed = test: Test Example 1: herbicidal activity, application before weed generation under submerged conditions (Table 16, symbol C); assay type: in vivo, oval-leafed pondweed (Monochoria vaginalis); details: 320 g/ha applied herbicide
In short: as §1

late watergrass = test: Test Example 2: herbicidal activity, application during weed generation under submerged conditions (Table 17, symbol A); assay type: in vivo, late watergrass (Echinochloa oryzicola); details: AAH 320 g/ha; application during weed generation, submerged conditions
In short: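 3-wk visual-criteria score after one water-surface dose. Emulsion formulation, water-diluted to set rate; applied at 1–2 leaf stage; alluvial soil, 4 cm standing water; seeds co-sown; greenhouse 25–30° C.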

barnyard grass [1] = test: Test Example 3: herbicidal effect by foliage application, Wagner pot (Table 18, symbol H); assay type: in vivo, barnyard grass (Echinochloa crus-galli); details: for herbicidal effect on H: barnyard grass: amount of applied herbicide 320 g/ha; for herbicidal effect on H (barnyard grass), rating 0-5: 320 g/ha
In short: (§2)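 Plants were sown in alluvial soil held under 0.1–0.5 cm standing water and grown 14 days in a greenhouse at 25–30 °C. An emulsifiable formulation, water-diluted to the set dose, was then sprayed onto the foliage, and effects were scored three weeks later using previously defined criteria.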

Chinese sprangletop = test: Test Example 3: herbicidal effect by foliage application, Wagner pot (Table 18, symbol D); assay type: in vivo, chinese sprangletop (Leptochloa chinensis); details: for herbicidal effect on D: Chinese sprangletop: amount of applied herbicide 320 g/ha; for herbicidal effect on D (Chinese sprangletop), rating 0-5: 320 g/ha
In short: as §2

barnyard grass [2] = test: Test Example 4: herbicidal effect by soil treatment (Table 19, symbol H); assay type: in vivo, barnyard grass (Echinochloa crus-galli)
In short: (§3)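 Step 1: sow seeds in sterilized diluvial soil, cover ~1.5 cm. Step 2: spray diluted emulsion onto soil surface at predetermined rate. Step 3: greenhouse, 25–30° C, three weeks. Step 4: grade effect on each plant by earlier criteria.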

windgrass = test: Test Example 4: herbicidal effect by soil treatment (Table 19, symbol L); assay type: in vivo, windgrass (Apera spica-venti)
In short: as §3

velvetleaf [3] = test: Test Example 4: herbicidal effect by soil treatment (Table 19, symbol M); assay type: in vivo, velvetleaf (Abutilon theophrasti)
In short: as §3

lambsquarters [4] = test: Test Example 4: herbicidal effect by soil treatment (Table 19, symbol O); assay type: in vivo, lambsquarters (Chenopodium album)
In short: as §3

persian speedwell = test: Test Example 4: herbicidal effect by soil treatment (Table 19, symbol R); assay type: in vivo, Persian speedwell (Veronica persica)
In short: as §3

barnyard grass [5] = test: Test Example 5: herbicidal effect by foliage application, plastic box (Table 20, symbol H); assay type: in vivo, barnyard grass (Echinochloa crus-galli); details: foliage application; for H: barnyard grass, herbicidal effect (criteria 0-5): evaluated three weeks after application
In short: (§4)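 Foliar spray test: emulsion formulation diluted in water to a set application rate, sprayed onto 14-day-old plants raised in diluvial soil at 25° C to 30° C under glass. Both herbicidal effect and crop effect rated visually three weeks later.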

blackgrass = test: Test Example 5: herbicidal effect by foliage application, plastic box (Table 20, symbol J); assay type: in vivo, blackgrass (Alopecurus myosuroides); details: foliage application; for J: blackgrass, herbicidal effect (criteria 0-5): evaluated three weeks after application
In short: as §4

Italian ryegrass = test: Test Example 5: herbicidal effect by foliage application, plastic box (Table 20, symbol K); assay type: in vivo, Italian ryegrass (Lolium multiflorum); details: foliage application; for K: Italian ryegrass, herbicidal effect (criteria 0-5): evaluated three weeks after application
In short: as §4

velvetleaf [6] = test: Test Example 5: herbicidal effect by foliage application, plastic box (Table 20, symbol M); assay type: in vivo, velvetleaf (Abutilon theophrasti); details: foliage application; for M: velvetleaf, herbicidal effect (criteria 0-5): evaluated three weeks after application
In short: as §4

redroot pigweed = test: Test Example 5: herbicidal effect by foliage application, plastic box (Table 20, symbol N); assay type: in vivo, redroot pigweed (Amaranthus retroflexus); details: foliage application; for N: redroot pigweed, herbicidal effect (criteria 0-5): evaluated three weeks after application
In short: as §4

lambsquarters [7] = test: Test Example 5: herbicidal effect by foliage application, plastic box (Table 20, symbol O); assay type: in vivo, lambsquarters (Chenopodium album); details: foliage application; for O: lambsquarters, herbicidal effect (criteria 0-5): evaluated three weeks after application
In short: as §4

[8] = amount of applied herbicide 320 g/ha
[9] = 320 g/ha, three weeks after application
[10] = AAH 320 g/ha, three weeks after application

| SMILES | Herbicidal effect on B: Japanese bulrush (grade 0-5) (Japanese bulrush) | Herbicidal effect on C: oval-leafed pondweed (grade 0-5) (oval-leafed pondweed) | herbicidal effect rating, A: late watergrass (late watergrass) | herbicidal effect on H: barnyard grass (barnyard grass [1]) | herbicidal effect on D: Chinese sprangletop (Chinese sprangletop) | herbicidal effect on H: barnyard grass (barnyard grass [2]; [8]) | herbicidal effect on L: windgrass (windgrass; [8]) | herbicidal effect on M: velvetleaf (velvetleaf [3]; [8]) | herbicidal effect on O: lambsquarters (lambsquarters [4]; [8]) | herbicidal effect on R: persian speedwell (persian speedwell; [8]) | H: barnyard grass, herbicidal effect (criteria 0-5) (barnyard grass [5]; AAH 320 g/ha) | J: blackgrass, herbicidal effect (criteria 0-5) (blackgrass; AAH 320 g/ha) | K: Italian ryegrass, herbicidal effect (criteria 0-5) (Italian ryegrass; AAH 320 g/ha) | M: velvetleaf, herbicidal effect (criteria 0-5) (velvetleaf [6]; AAH 320 g/ha) | N: redroot pigweed, herbicidal effect (criteria 0-5) (redroot pigweed; AAH 320 g/ha) | O: lambsquarters, herbicidal effect (criteria 0-5) (lambsquarters [7]; AAH 320 g/ha) | herbicidal effect on H (barnyard grass), rating 0-5 (barnyard grass [1]) | herbicidal effect on D (Chinese sprangletop), rating 0-5 (Chinese sprangletop) | further results |
| --- | --- | --- | --- | --- | --- | --- | --- | --- | --- | --- | --- | --- | --- | --- | --- | --- | --- | --- | --- |
| COc1cccc(S(=O)(=O)Oc2c(C)nn(C)c(=O)c2-c2c(-c3ccc(OC(F)F)cc3)sc3ccc(F)cc23)c1 [2-313] | 3 (Herbicidal rate of 40% or more and less than 70%) | 0 (Herbicidal rate of 5% or less (almost no effect)) | 3 (Herbicidal rate of 40% or more and less than 70%) | 5 (Herbicidal rate of 90% or more (almost completely withered)) | 2 (Herbicidal rate of 20% or more and less than 40%) | 1 (Herbicidal rate of 5% or more and less than 20%) | 0 (Herbicidal rate of 5% or less (almost no effect)) | 4 (Herbicidal rate of 70% or more and less than 90%) | 3 (Herbicidal rate of 40% or more and less than 70%) | 5 (Herbicidal rate of 90% or more (almost completely withered)) | 5 (Herbicidal rate of 90% or more (almost completely withered)) | 4 (Herbicidal rate of 70% or more and less than 90%) | 5 (Herbicidal rate of 90% or more (almost completely withered)) | 5 (Herbicidal rate of 90% or more (almost completely withered)) | 5 (Herbicidal rate of 90% or more (almost completely withered)) | 5 (Herbicidal rate of 90% or more (almost completely withered)) | – | – | – |
| Cc1nn(C)c(=O)c(-c2c(-c3ccc(OC(C)C)cc3)sc3ccccc23)c1O [1-020] | 5 (Herbicidal rate of 90% or more (almost completely withered)) | 4 (Herbicidal rate of 70% or more and less than 90%) | 2 (Herbicidal rate of 20% or more and less than 40%) | – | – | – | – | – | – | – | – | – | – | – | – | – | 5 (Herbicidal rate of 90% or more (almost completely withered)) | 1 (Herbicidal rate of 5% or more and less than 20%) | herbicidal effect rating, H: barnyard grass (barnyard grass [2]; [8]): 5 (Herbicidal rate of 90% or more (almost completely withered)); herbicidal effect rating, L: windgrass (windgrass; [8]): 0 (Herbicidal rate of 5% or less (almost no effect)); herbicidal effect rating, M: velvetleaf (velvetleaf [3]; [8]): 0 (Herbicidal rate of 5% or less (almost no effect)); herbicidal effect rating, O: lambsquarters (lambsquarters [4]; [8]): 4 (Herbicidal rate of 70% or more and less than 90%); herbicidal effect rating, R: persian speedwell (persian speedwell; [8]): 5 (Herbicidal rate of 90% or more (almost completely withered)); herbicidal effect grade, H: barnyard grass (barnyard grass [5]; [9]): 4 (Herbicidal rate of 70% or more and less than 90%); herbicidal effect grade, J: blackgrass (blackgrass; [9]): 4 (Herbicidal rate of 70% or more and less than 90%); herbicidal effect grade, K: Italian ryegrass (Italian ryegrass; [9]): 3 (Herbicidal rate of 40% or more and less than 70%); herbicidal effect grade, M: velvetleaf (velvetleaf [6]; [9]): 3 (Herbicidal rate of 40% or more and less than 70%); herbicidal effect grade, N: redroot pigweed (redroot pigweed; [9]): 3 (Herbicidal rate of 40% or more and less than 70%); herbicidal effect grade, O: lambsquarters (lambsquarters [7]; [9]): 2 (Herbicidal rate of 20% or more and less than 40%) |
| C=C(C)C(=O)Oc1c(C)nn(C)c(=O)c1-c1c(-c2ccc(OC(F)F)cc2)sc2ccc(F)cc12 [2-281] | 5 (Herbicidal rate of 90% or more (almost completely withered)) | 4 (Herbicidal rate of 70% or more and less than 90%) | 5 (Herbicidal rate of 90% or more (almost completely withered)) | 5 (Herbicidal rate of 90% or more (almost completely withered)) | 3 (Herbicidal rate of 40% or more and less than 70%) | 4 (Herbicidal rate of 70% or more and less than 90%) | 3 (Herbicidal rate of 40% or more and less than 70%) | 4 (Herbicidal rate of 70% or more and less than 90%) | 5 (Herbicidal rate of 90% or more (almost completely withered)) | 5 (Herbicidal rate of 90% or more (almost completely withered)) | 5 (Herbicidal rate of 90% or more (almost completely withered)) | 4 (Herbicidal rate of 70% or more and less than 90%) | 5 (Herbicidal rate of 90% or more (almost completely withered)) | 5 (Herbicidal rate of 90% or more (almost completely withered)) | 5 (Herbicidal rate of 90% or more (almost completely withered)) | 5 (Herbicidal rate of 90% or more (almost completely withered)) | – | – | – |
| CCCC(=O)Oc1c(C)nn(C)c(=O)c1-c1c(-c2ccc(C(F)(F)F)cc2)sc2ccccc12 [1-130] | 3 (Herbicidal rate of 40% or more and less than 70%) | 3 (Herbicidal rate of 40% or more and less than 70%) | 2 (Herbicidal rate of 20% or more and less than 40%) | – | – | – | – | – | – | – | – | – | – | – | – | – | 4 (Herbicidal rate of 70% or more and less than 90%) | 3 (Herbicidal rate of 40% or more and less than 70%) | H: barnyard grass, herbicidal effect rating (barnyard grass [2]; AAH 320 g/ha): 3 (Herbicidal rate of 40% or more and less than 70%); L: windgrass, herbicidal effect rating (windgrass; AAH 320 g/ha): 0 (Herbicidal rate of 5% or less (almost no effect)); M: velvetleaf, herbicidal effect rating (velvetleaf [3]; AAH 320 g/ha): 1 (Herbicidal rate of 5% or more and less than 20%); O: lambsquarters, herbicidal effect rating (lambsquarters [4]; AAH 320 g/ha): 4 (Herbicidal rate of 70% or more and less than 90%); R: persian speedwell, herbicidal effect rating (persian speedwell; AAH 320 g/ha): 3 (Herbicidal rate of 40% or more and less than 70%); H: barnyard grass, herbicidal effect (barnyard grass [5]; [10]): 0 (Herbicidal rate of 5% or less (almost no effect)); J: blackgrass, herbicidal effect (blackgrass; [10]): 0 (Herbicidal rate of 5% or less (almost no effect)); K: Italian ryegrass, herbicidal effect (Italian ryegrass; [10]): 5 (Herbicidal rate of 90% or more (almost completely withered)); M: velvetleaf, herbicidal effect (velvetleaf [6]; [10]): 5 (Herbicidal rate of 90% or more (almost completely withered)); N: redroot pigweed, herbicidal effect (redroot pigweed; [10]): 4 (Herbicidal rate of 70% or more and less than 90%); O: lambsquarters, herbicidal effect (lambsquarters [7]; [10]): 4 (Herbicidal rate of 70% or more and less than 90%) |
